Measured values reported in patent US20250320203A1, “4-(3H-PYRAZOLO[4,3-F]QUINOLIN-7-YL)-N-(2-(DIMETHYLAMINO)ETHYL)BENZAMIDE- OR HYDROXAMIC ACID COMPOUNDS, COMPOSITIONS, AND METHODS OF USE” (Purdue Research Foundation, priority 2022, published 2025).

How the values were obtained:
[1] = system: Molm-14 cells (FLT3-ITD); test: AML cell line growth inhibition (CellTiter-Blue), 50 nM; assay type: cell-based; conditions: Homo sapiens, 50 nM inhibitor conc., means of triplicates, read-out: Percent Inhibition (%) Molm-14 growth
Protocol: With the amide kinase inhibitor library established, kinase inhibition and AML cell line (Molm-14, which harbors FLT3-ITD) growth inhibition were analyzed (Table 1). More specifically, Haspin and FLT3 inhibition were evaluated in-house via ADP Glo Kinase Assay (Promega, Madison, WI). […] Values reported are means of triplicates.
(§1) More specifically, cells were cultured to confluence in RPMI medium supplemented with 10% fetal bovine serum and 1× Penicillin-Streptomycin (Gibco™). Cells were plated at 5,000 cells/well in 96 well plates. After 24-hour incubation at 37° C. in a 5% CO2 incubator, compounds diluted in the same media were added to the indicated final concentration and allowed to incubate at 37° C. in a 5% CO2 incubator for 72 hours. Viability was determined using CellTiter-Blue® Cell Viability Assay (Promega, Madison, WI) with absorbance readings at 570 nm performed on a Cytation™ 5 Cell Imaging Multi-Mode Reader (BioTek) 3 hours after addition. Appropriate vehicle and cell-free controls were included. GI50 readings were confirmed by two scientists on two separate days.

[2] = target: T1, FLT3-ITD (Homo sapiens, UniProt P36888); test: FLT3-ITD enzyme inhibition, 10-dose IC50 (Reaction Biology); assay type: biochemical; conditions: 10 μM ATP
T1 sequence (P36888 1-993): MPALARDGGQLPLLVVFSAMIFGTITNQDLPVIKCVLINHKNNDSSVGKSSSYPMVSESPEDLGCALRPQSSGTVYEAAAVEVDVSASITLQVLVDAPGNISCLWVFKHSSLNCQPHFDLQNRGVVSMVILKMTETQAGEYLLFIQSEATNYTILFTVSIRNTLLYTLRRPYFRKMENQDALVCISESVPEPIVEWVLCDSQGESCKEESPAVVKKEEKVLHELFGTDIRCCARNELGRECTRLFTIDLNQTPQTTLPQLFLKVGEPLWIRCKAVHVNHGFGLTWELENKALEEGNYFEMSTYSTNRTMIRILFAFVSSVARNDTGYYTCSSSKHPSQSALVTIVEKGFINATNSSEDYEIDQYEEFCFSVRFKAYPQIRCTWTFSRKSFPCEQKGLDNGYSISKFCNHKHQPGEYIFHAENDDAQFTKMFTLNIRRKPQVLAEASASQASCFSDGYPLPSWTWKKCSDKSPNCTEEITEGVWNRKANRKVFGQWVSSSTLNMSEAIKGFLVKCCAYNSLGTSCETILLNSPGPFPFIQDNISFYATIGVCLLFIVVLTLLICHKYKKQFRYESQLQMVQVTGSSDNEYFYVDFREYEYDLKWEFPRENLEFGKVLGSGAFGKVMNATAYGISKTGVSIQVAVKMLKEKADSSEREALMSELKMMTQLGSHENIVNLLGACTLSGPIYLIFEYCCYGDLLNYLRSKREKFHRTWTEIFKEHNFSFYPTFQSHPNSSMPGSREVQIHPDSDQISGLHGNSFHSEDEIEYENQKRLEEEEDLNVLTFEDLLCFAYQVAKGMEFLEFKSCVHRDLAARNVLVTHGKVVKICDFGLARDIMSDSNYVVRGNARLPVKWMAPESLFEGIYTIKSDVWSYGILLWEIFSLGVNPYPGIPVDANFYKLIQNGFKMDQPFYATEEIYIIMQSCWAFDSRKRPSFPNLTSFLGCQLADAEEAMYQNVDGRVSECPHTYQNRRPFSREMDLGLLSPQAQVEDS

[3] = system: phosphorylated FLT3; test: Western blot, FLT3 target engagement in Molm-14 cells; assay type: cell-based, human; conditions: Molm-14 cells treated for 2 hours
Protocol: Acute myeloid leukemia cells (Molm-14) were incubated with various concentrations of compound as specified. Cells were collected and lysed, and protein concentrations were quantified relative to BSA standards. After protein denaturation, proteins were separated via SDS-PAGE electrophoresis and transferred to NC membranes. After blocking, overnight incubation with specific primary antibodies, and room temperature incubation for 2 hours with peroxidase-conjugated secondary antibodies, peroxidase activity was detected with SuperSignal West Pico reagents (Thermo Scientific) using a CCD camera LAS-4000 (Fujifilm). Bands were normalized using housekeeping gene, Actin. Values reported represent the means of triplicates and error bars represent SD. All specific antibodies were purchased from Cell Signaling.
Additionally, FLT3 target engagement in Molm-14 cells was evaluated to confirm the FLT3 inhibition seen in the preliminary kinase screen of Example 4 (Table 1). Cells were treated for 2 hours, harvested, and subsequently analyzed.

[4] = system: Molm 14-ITD-D835Y; test: Cell viability GI50, Molm 14-ITD-D835Y; assay type: cell-based; conditions: Homo sapiens; 72 hours
Protocol: as §1
Scholl et al. (2020), supra. Accordingly, Compound HSK205 was evaluated against Molm-14 cell lines that harbor resistant mutations commonly found in the clinic, FLT3-ITD-D835Y and F691L (FIG. 15).

[5] = system: DNA; test: DNA intercalation assay; conditions: doses from 1 mM to 10 nM
Protocol: FIG. 16 is a graph of data from a DNA intercalation assay. […] Data was fitted to a non-linear regression equation using GraphPad Prism 9.0 software (each data point represents the mean of triplicates).
To move compounds forward for further development, DNA intercalation assays were conducted to eliminate compounds with high affinity for DNA.

- IC50 [2]: < 0.5 nM
- GI50 [4]: 4.3 nM
- DNA intercalation [5]: did not intercalate into DNA
Compound: Cc1c[nH]c(CNC(=O)c2ccc(-c3nc4ccc5[nH]ncc5c4c4c3CCCC4)cc2)n1 [Compound HSK205]
- inhibition at 0.05 µM [1]: 96%
- phosphorylated FLT3 [3]: reduction of phosphorylated FLT3
